Data: patent US20040127492A1 (Pharmacia Corporation, priority 2002, published 2004)
Structures can show the parent of a compound that is named as a salt. Where two headings read alike, the source gives them in different places.

Target: MAPKAPK2 (MK-2) (Homo sapiens, UniProt P49137)
Test: Determination of MK-2 IC50 (HSP-peptide phosphorylation, anion exchange resin capture assay)
Assay type: biochemical
Protocol: Determination of MK-2 IC50:
Recombinant MAPKAPK2 was phosphorylated at a concentration of 42-78 μM by incubation with 0.23 μM of active p38α in 50 mM HEPES, 0.1 mM EDTA, 10 mM magnesium acetate, and 0.25 mM ATP, pH 7.5 for one hour at 30° C.
The phosphorylation of HSP-peptide ([…]) by MAPKAPK2 was measured using an anion exchange resin capture assay method. The reaction was carried out in 50 mM β-glycerolphosphate, 0.04% BSA, 10 mM magnesium acetate, 2% DMSO and 0.8 mM dithiotheritol, pH 7.5 in the presence of the HSP-peptide with 0.2 μCi [γ^33P]ATP and 0.03 mM ATP. The reaction was initiated by the addition of 15 nM MAPKAPK2 and was allowed to incubate at 30° C. for 30 min. The reaction was terminated and [γ^33P]ATP was removed from solution by the addition of 150 μl of AG 1×8 ion exchange resin in 900 mM sodium formate pH 3.0. A 50 μl aliquot of head volume was removed from the quenched reaction mixture and added to a 96-well plate, 150 μl of Microscint-40 (Packard) was added and the amount of phosphorylated-peptide was determined. Allow the Microscint to sit in the plates for 60 minutes prior to counting.
Compounds are evaluated as potential inhibitors of the MK-2 kinase by measuring their effects on MK-2 phosphorylation of the peptide substrate. Compounds may be screened initially at two concentrations prior to determination of IC50 values. Screening results are expressed as percent inhibition at the concentrations of compound tested. For IC50 value determinations, Compounds are tested at six concentrations in ten-fold serial dilutions with each concentration tested in triplicate. Results are expressed as IC50 values in micromolar. The assay is performed at a final concentration of 2% DMSO.

[1] = Table 1, phenoxypyrazole MK-2 inhibitors, read-out: MK-2 Avg, IC50
[2] = Table 2, pyrazolylpyrazole MK-2 inhibitors, read-out: MK-2 Avg. IC50
[3] = Table 4, pyrimidylpyrazole MK-2 inhibitors, read-out: MK-2 Avg. IC50

Sequence of MAPKAPK2 (MK-2) (P49137 whole entry, species assumed): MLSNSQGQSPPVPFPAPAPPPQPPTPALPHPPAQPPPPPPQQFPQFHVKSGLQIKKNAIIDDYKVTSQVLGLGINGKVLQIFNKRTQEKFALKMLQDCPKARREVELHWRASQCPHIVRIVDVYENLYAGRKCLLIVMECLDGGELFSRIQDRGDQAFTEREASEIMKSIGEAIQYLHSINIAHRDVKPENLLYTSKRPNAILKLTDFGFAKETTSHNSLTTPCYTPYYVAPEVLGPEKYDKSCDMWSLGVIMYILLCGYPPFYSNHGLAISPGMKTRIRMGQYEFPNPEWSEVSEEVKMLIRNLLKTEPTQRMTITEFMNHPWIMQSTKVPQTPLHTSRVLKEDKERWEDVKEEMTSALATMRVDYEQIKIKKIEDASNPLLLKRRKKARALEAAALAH

Compound	IC50 (read-out: MK-2 Avg. IC50) [µM]	other results
O=C1NC(CNCc2ccc(Cl)cc2)Cn2nc3c(c21)CCc1cnccc1-3 (centres unmarked) [Example 193]	27.3	–
NCCCn1nc2c(c1C(=O)O)CCc1c-2ccnc1Cl [Example 179]	16.5	–
NCCCn1nc2c(c1C(=O)O)CCc1c-2cc(-c2cccc([N+](=O)[O-])c2)c(O)c1Cl [Example 43]	–	IC50 [1]: 74.3 µM
C#Cc1cnc2c(c1)-c1nn(CCN)c(C(=O)OCC)c1CC2 [Example 222]	62.5	–
CCOC(=O)c1c2c(nn1CCN)-c1ccncc1CC2 [Example 169]	12.3	–
CCC(CC)CNCCn1nc2c(c1C(=O)O)CCc1cnccc1-2 [Example 221]	62.1	–
c1cc2c(cn1)CCc1c[nH]nc1-2 [Example 238]	86.1	–
Cc1ccc(S(=O)(=O)NC(=O)NCCCn2nc3c(c2C(=O)O)CCc2cnccc2-3)cc1 [Example 233]	80.6	–
O=C1NCCCn2nc3c(c21)CCc1cnc(-c2ccc(OCc4ccccc4)cc2)cc1-3 [Example 242]	93.4	–
O=C(O)c1c2c(nn1CCCNCC(F)(F)F)-c1ccncc1CC2 [Example 218]	56.3	–
CCOC(=O)c1[nH]nc2c1CCc1[nH]nc(SCc3ccccc3)c1-2 [Example 61]	–	IC50 [2]: ≥ 200 µM
O=C(O)c1c2c(nn1CCCNc1ccncc1)-c1ccncc1CC2 [Example 249]	101	–
O=S(=O)(Cc1ccc(Cl)cc1)NC1CCCn2nc3c(c21)CCc1cnccc1-3 (centres unmarked) [Example 232]	78.7	–
C=CCn1nc2c(c1C(N)=O)CCc1cnc(-c3cnc4ccccc4c3)cc1-2 [Example 258]	119	–
COC(=O)c1c2c(nn1CCO)-c1ccncc1CC2 [Example 271, hydrochloride]	161	–
CS(=O)(=O)NCCCn1nc2c(c1C(=O)O)CCc1cnccc1-2 [Example 196]	28.2	–
O=C(NCCCn1nc2c(c1C(=O)O)CCc1cnccc1-2)c1ccccn1 [Example 261]	129	–
N#Cc1cccc(NC(=O)NCCCn2nc3c(c2C(=O)O)CCc2cnccc2-3)c1 [Example 184]	17.9	–
CCC(C)Nc1cc2c(cc1O)CCc1c-2nn(CCCN)c1C(=O)O (centres unmarked) [Example 35]	–	IC50 [1]: 45.9 µM
CN(C)CC(O)Cn1nc2c(c1C(=O)N(C)C)CCc1cnccc1-2 (centres unmarked) [Example 228]	69.3	–
O=C(O)c1c2c(nn1CCO)-c1ccncc1CC2 [Example 173]	14.3	–
O=C1NCCn2nc3c(c21)CCc1cnc(/C=C/c2ccccc2)cc1-3 [Example 2]	–	IC50 (Table 5, other cyclic pyrazole MK-2 inhibiting compounds, read-out: MK-2 Avg. IC50): 0.147 µM
NCCCNC(=O)c1[nH]nc2c1CCc1cnccc1-2 [Example 278]	189	–
CCCn1nc2c(c1C(=O)O)CCc1cnccc1-2 [Example 187]	20.1	–
O=C1NCCn2nc3c(c21)CCc1c-3ccnc1Cl [Example 194]	27.7	–

Compound	IC50 (read-out: MK-2 Avg. IC50) [µM]	other results
O=C(O)c1c2c(nn1CCCNCc1cnc[nH]1)-c1ccncc1CC2 [Example 160]	10.1	–
NC(=O)c1[nH]nc2c1CCc1cnccc1-2 [Example 163]	10.4	–
C=CCn1nc2c(c1C(=O)O)CCc1cnccc1-2 [Example 170]	12.6	–
CCC(C)Nc1cc2c(cc1OC)CCc1c-2nn(CCCN)c1C(=O)O (centres unmarked) [Example 74]	–	IC50 [1]: 196 µM
N#CC1CCn2nc3c(c2C(=O)N1)CCc1cnccc1-3 (centres unmarked) [Example 199]	33.3	–
COc1cccc(-c2cc3c(cn2)CCc2c-3nn3c2C(=O)NCC3)c1 [Example 45]	0.322	–
COC(=O)c1c2c(nn1CCCN)-c1nc(-c3ccncc3)ncc1CC2 [Example 12]	–	IC50 [3]: 142 µM
O=C1NCCn2nc3c(c21)CCc1cnc(N2CCOCC2)cc1-3 [Example 168]	11.9	–
CC(C)S(=O)(=O)NCCCn1nc2c(c1C(=O)O)CCc1cnccc1-2 [Example 200]	33.3	–
O=C(NCCCn1nc2c(c1C(=O)O)CCc1cnccc1-2)c1ccncc1 [Example 253]	109	–
O=C1NCCn2nc3c(c21)CCc1cnc(-c2cccc4ncccc24)cc1-3 [Example 246]	98.3	–
O=C(CO)NCCn1nc2c(c1C(=O)O)CCc1cnccc1-2 [Example 181]	17.4	–
CC(C)(C)OC(=O)NC1CCN(CCCn2nc3c(c2C(=O)O)CCc2cnccc2-3)CC1 [Example 269]	149	–
CN(C)CCNc1cc2c(cn1)CCc1c-2nn2c1C(=O)NCC2 [Example 220]	60.7	–
Cn1nc2c(c1C(=O)O)CCc1cnccc1-2 [Example 231]	76.6	–
NCCCn1nc2c(c1C(=O)O)CCc1cc(O)c(Cc3ccccc3)cc1-2 [Example 29]	–	IC50 [1]: 29.6 µM
COc1cccc(S(=O)(=O)NCCCn2nc3c(c2C(=O)O)CCc2cnccc2-3)c1 [Example 267]	141	–
NC(=O)NCCCn1nc2c(c1C(=O)O)CCc1cnccc1-2 [Example 192]	25.3	–
NC(=O)C1CCN(CC(O)Cn2nc3c(c2C(=O)O)CCc2cnccc2-3)CC1 (centres unmarked) [Example 240]	87.6	–
N#CCCCn1nc2c(c1C(=O)O)CCc1cnccc1-2 [Example 183]	17.9	–
O=C(O)c1c2c(nn1CC(O)CNCc1cccs1)-c1ccncc1CC2 (centres unmarked) [Example 206]	36.8	–
NC1CCN(CC(O)Cn2nc3c(c2C(=O)O)CCc2cnccc2-3)CC1 (centres unmarked) [Example 266]	136	–
O=C1NCCCn2nc3c(c21)CCc1cnc(-c2ccccc2)nc1-3 [Example 11]	–	IC50 [3]: 81.4 µM
C=CCn1nc2c(c1C(=O)O)CCc1c[n+]([O-])ccc1-2 [Example 230]	75.4	–
CNC(=O)c1[nH]nc2c1CCc1cnccc1-2 [Example 265]	135	–

Compound	IC50 (read-out: MK-2 Avg. IC50) [µM]	other results
NC(=O)CCn1nc(C(N)=O)c2c1-c1cn[nH]c1CC2 [Example 56]	–	IC50 [2]: ≥ 200 µM
NCCCN1CCn2nc3c(c2C1=O)CCc1cnccc1-3 [Example 216]	54.8	–
NCCCn1nc2c(c1CCl)CCc1cnccc1-2 [Example 201]	33.5	–
O=C1NCCn2nc3c(c21)CCc1cnc(N2CCNCC2)cc1-3 [Example 225]	64.9	–
COc1cc2c(cc1Cc1ccccc1)-c1nn(CCCNC(=O)OC(C)(C)C)c(C(=O)O)c1CC2 [Example 63]	–	IC50 [1]: 154 µM
COc1ccc(-c2cc3c(cn2)CCc2c-3nn3c2C(=O)NCC3)cc1 [Example 62]	0.587	–
O=C(O)c1c2c(nn1CCCNc1cccnc1)-c1ccncc1CC2 [Example 208]	39.4	–
CCOC(=O)c1c2c(nn1CCN)-c1cc(Cl)ncc1CC2 [Example 204]	36	–
NCCCn1nc(-c2nnn[nH]2)c2c1-c1ccncc1CC2 [Example 247]	100	–
CCCCOc1ccc(S(=O)(=O)NCCCn2nc3c(c2C(=O)O)CCc2cnccc2-3)cc1 [Example 255]	113	–
NCC1Cn2nc3c(c2C(=O)O1)CCc1cnccc1-3 (centres unmarked) [Example 185]	19.4	–
O=C(CCc1ccco1)NCCCn1nc2c(c1C(=O)O)CCc1cnccc1-2 [Example 256]	116	–
O=C(O)c1[nH]nc2c1CCc1[nH]nc(SCc3ccccc3)c1-2 [Example 60]	–	IC50 [2]: ≥ 200 µM
CCC(CC)CNCCCCn1nc2c(c1C(=O)O)CCc1cnccc1-2 [Example 197]	29.4	–
O=C1NCCn2nc3c(c21)CCc1cnc(Cc2ccc(Cl)cc2)cc1-3 [Example 243]	94.2	–
NC(=O)C1Cn2nc3c(c2C(=O)N1)CCc1cnc(-c2cnc4ccccc4c2)cc1-3 (centres unmarked) [Example 195]	27.9	–
CN(C)CCCn1nc2c(c1C(=O)O)CCc1cnccc1-2 [Example 177]	15.5	–
CCCn1nc2c(c1C(=O)O)CCc1cnc(-c3cnc4ccccc4c3)cc1-2 [Example 20]	0.0914	–
O=C1c2c3c(nn2CC2CCCN1C2)-c1ccncc1CC3 (centres unmarked) [Example 281]	191	–
COc1ccc(-c2ncc3c(n2)-c2nn4c(c2CC3)C(=O)NCCC4)cc1 [Example 8]	–	IC50 [3]: 4.52 µM
CCCCCCc1cc2c(cn1)CCc1c-2nn2c1C(=O)NCC2 [Example 264]	133	–
CSc1n[nH]c2c1-c1n[nH]c(C(=O)O)c1CC2 [Example 64]	–	IC50 [2]: ≥ 200 µM
CS(=O)(=O)c1n[nH]c2c1-c1n[nH]c(C(N)=O)c1CC2 [Example 58]	–	IC50 [2]: ≥ 200 µM
O=C1c2c3c(nn2CCN1CCCc1ccccc1)-c1ccncc1CC3 [Example 251]	102	–
